Results published in patent US20120230974A1, “ALKALINE ALPHA GALACTOSIDASE FOR THE TREATMENT OF FABRY DISEASE” (PROTALIX LTD, priority 2009, published 2012).
Each block holds one molecule with its values, some of them ahead of it.

Assays:
[1] = Biodistribution of fluorescent Gb3 in WT and Fabry mice; assay type: in vivo
Excerpt: For testing the hypothesis that circulating Gb3 can reach and accumulate in organs, organ uptake and biodistribution of fluorescent Gb3 (N-Dodecanoyl-NBD-ceramide trihexoside) in wild type (WT) and Fabry mice were effected.
Animals: Mice: Fabry mice and WT mice
Group Size: total 12 male mice, n=2
Materials: fluorescent Gb3 (N-Dodecanoyl-NBD-ceramide trihexoside; Catalog #: 1631, Matreya Pa. 16823 USA
Jackson B6J129Gla α-galactosidase-A-deficient mice (“Fabry mice”) were purchased from Jackson Laboratories. These mice are characterized by being totally deficient in α-Galactosidase-A activity and progressively accumulate Gb3 in both plasma and in the lysosomes of most tissues (in particular, the liver, spleen, heart, skin, and kidneys). In addition, these mice have no clinical disease phenotype and survive a normal laboratory life span (>2 years). Hemizygous affected males were bred to homozygous affected females, thereby providing only affected offspring. For these studies, all mice were affected adult males 12 to 30 weeks of age at study initiation.
Administration: IV injection, tail vein.
Gb3-NBD was injected to wild type and Fabry mice. Blood was collected 1 hour and 24 hours following injection and plasma was prepared using accepted methods. Gb3-NBD levels were determined using Fluorescent Elisa reader (Infinite M200; Tecan, Switzerland), subtracting basal fluorescent levels plasma of control mice injected with saline.
Gb3 presence was also detected with HP TLC (CAMAG, Switzerland)
Organs (liver, kidney heart and spleen) were collected from the mice of the experiment described above, and Gb3-NBD levels were determined by fluorescence detector and HPTLC as described. As the experiment was initial, low levels of Injected Gb3 NBD were given.

[2] = Activity assay with NBD-Gb3 in PBS pH 7.4 (HP-TLC); assay type: biochemical
Description: a-Gals: prh-alpha galactosidase, GCB a-Gal (endogenous green coffee bean).
80 μl PBS (sigma), pH=7.4
10 μl of NBD-Gb3 0.1 μg/ul in Ethanol [10 ug/ml in reaction]
10 μl of a-Gal 1 mg/ml [100 μg/ml in reaction]
Incubated for 60 min in 37° C.
150 μl chloroform: methanol (2:1) were added followed by vortex the lower phase pulled out speed-vac was effected to complete evaporation and the pellet dissolved in 50 μl Chloroform: methanol [1:1] All samples were injected on HP-TLC silica-60 plate [40 ul ]
Chloroform: methanol: H2O [100:42:6].

[3] = In vitro hydrolysis of Gb3-NBD by alpha galactosidases from different sources under various pH conditions (TLC); assay type: biochemical; conditions: phosphate buffer pH 6.5, 60 min 37° C., a-Gal 50 ug/ml
Description: Green Coffee Bean-GCB a-Gal (Sigma #G8507)
Plant recombinant human alpha galactosidase was produced as described in WO2008/132743 (alpha-Gal-KDEL).
Commercial recombinant human alpha galactosidase (Replagal, Shire)
The following protocol was used for NBD-Gb3 hydrolysis:
90 μl activity buffer [citrate phosphate pH=4.6; phosphate buffer pH=6.5
10 μl of NBD-Gb3 0.35 ug/ul in Ethanol [35 ug/ml in reaction]
5 μl of a-Gal 1 mg/ml [50 ug/ml in reaction]
Incubation for 60 min in 37° C.
100 μl chloroform were added followed by vortex
50 μl methanol were added followed by vortex
Injection on TLC silica-60 plate, Chloroform: methanol: H2O [100:42:6] as mobile phase.

[4] = clinical studies; cited from earlier work

- Gb3-NBD levels in plasma (fluorescence) ([1]; 24 hours following iv injection, 320 ug/kg, WT and Fabry mice): fluorescence only in Fabry mice
- Gb3-NBD bands in organs by HPTLC ([1]; iv 320 ug/kg, inconclusive due to high background): only in Fabry mice
Molecule: N-Dodecanoyl-NBD-ceramide trihexoside [Gb3-NBD]
- Gb3-NBD fluorescent levels in plasma and organs (liver, kidney, heart, spleen) ([1]; iv 320 ug/kg, fluorescence detector): only detectable in Plasma (FIG. 5) and Liver

Molecule: Green coffee bean alpha gal: Endogenous green coffee bean alpha galactosidase (Sigma #G8507)
- Activity compared with plant recombinant human alpha Gal (upshift of band) ([2]; PBS pH 7.4): works better
- Enzymatic activity on NBD-Gb3 under neutral to basic pH ([2]; PBS pH 7.4, 60 min 37° C., a-Gal 100 μg/ml, HP-TLC): demonstrate enzymatic activity
- Activity under alkaline pH compared with the acidic conditions of FIG. 3 ([2]; pH 7.4 vs acidic conditions of FIG. 3): more active under alkaline pH conditions
- Hydrolysis of Gb3-NBD to lactosylceramide-NBD [3]: can hydrolyze NBD-Gb3

B1: Replagal: Commercial recombinant human alpha galactosidase (Replagal, Shire) (protein, UniProt P06280 32-429, looked up)
Alpha-galactosidase A: LDNGLARTPTMGWLHWERFMCNLDCQEEPDSCISEKLFMEMAELMVSEGWKDAGYEYLCIDDCWMAPQRDSEGRLQADPQRFPHGIRQLANYVHSKGLKLGIYADVGNKTCAGFPGSFGYYDIDAQTFADWGVDLLKFDGCYCDSLENLADGYKHMSLALNRTGRSIVYSCEWPLYMWPFQKPNYTEIRQYCNHWRNFADIDDSWKSIKSILDWTSFNQERIVDVAGPGGWNDPDMLVIGNFGLSWNQQVTQMALWAIMAAPLFMSNDLRHISPQAKALLQDKDVIAINQDPLGKQGYQLRQGDNFEVWERPLSGLAWAVAMINRQEIGGPRSYTIAVASLGKGVACNPACFITQLLPVKRKLGFYEWTSRLRSHINPTGTVLLQLENTMQMSLKDLL
modifications: agalsidase alfa
- Hydrolysis of Gb3-NBD to lactosylceramide-NBD [3]: can partially hydrolyze Gb3
- Clearance of Gb3 from plasma, kidney cells, capillary endothelial cells of heart and skin [4]: proven efficacious

B2: Fabrazyme: Recombinant form of human α-galactosidase A (agalsidase beta, Genzyme) (protein, UniProt P06280 32-429, looked up)
Alpha-galactosidase A: LDNGLARTPTMGWLHWERFMCNLDCQEEPDSCISEKLFMEMAELMVSEGWKDAGYEYLCIDDCWMAPQRDSEGRLQADPQRFPHGIRQLANYVHSKGLKLGIYADVGNKTCAGFPGSFGYYDIDAQTFADWGVDLLKFDGCYCDSLENLADGYKHMSLALNRTGRSIVYSCEWPLYMWPFQKPNYTEIRQYCNHWRNFADIDDSWKSIKSILDWTSFNQERIVDVAGPGGWNDPDMLVIGNFGLSWNQQVTQMALWAIMAAPLFMSNDLRHISPQAKALLQDKDVIAINQDPLGKQGYQLRQGDNFEVWERPLSGLAWAVAMINRQEIGGPRSYTIAVASLGKGVACNPACFITQLLPVKRKLGFYEWTSRLRSHINPTGTVLLQLENTMQMSLKDLL
modifications: agalsidase beta
- Clearance of Gb3 from plasma, kidney cells, capillary endothelial cells of heart and skin [4]: proven efficacious
